These results are taken from PubChem BioAssay AID1996.

What is called kinetic solubility is the concentration staying in solution when a stock, usually in DMSO, is diluted into the medium.

The structures appear in SMILES notation. In brackets after ≈: the same amount, converted by molar mass.

For the data set the following is noted: buffer; pH 7.4; 200.0 µM.
In turn, `CC(=O)OC(C(=O)NC1CCCCC1)c1cccc(F)c1` (stereo not drawn) had a kinetic solubility of more than 44 µg/mL.

Compound `Cn1c(=O)oc2cc(S(=O)(=O)NC3CCCCC3)ccc21` gave a kinetic solubility of more than 46.6 µg/mL. Compound `Cc1cc(NC(=O)c2ccc(F)cc2)no1` returned a kinetic solubility of 20.7 µg/mL (≈ 94 µM). `C=CCOc1ccc2c(c1)c(=O)cc(C(=O)O)n2CC` gave a solubility (kinetic) of 39.7 µg/mL (≈ 145 µM). As for `CCOC(=O)c1c(CC(C)C)csc1/N=C/C1=C(O)CCCC1=O`, the figure is 2.3 µg/mL (≈ 6.58 µM); as for `CC1(c2ccccc2)NC(=O)N(CC#N)C1=O` (stereo not drawn), 34.3 µg/mL (≈ 150 µM).

In turn, `CC(C)(CNC(=O)c1ccc(Br)o1)N1CCOCC1` came in with a kinetic solubility of 42.8 µg/mL (≈ 129 µM).

`O=C(COC(=O)c1cccc(Cl)c1)NCc1ccccc1` gave a solubility (kinetic) of 4.6 µg/mL (≈ 15.1 µM). For the compound `CCN(C(=O)COc1ncnc2ccccc12)C1CCCCC1`, the solubility (kinetic) was more than 47 µg/mL. As to `Cc1cccc(C)c1NC(=O)COC(=O)c1ccc([N+](=O)[O-])o1`, the kinetic solubility was determined as 34.3 µg/mL (≈ 108 µM). As for `CCCN1CN(c2ccccc2)C(=S)N(c2ccccc2)C1`, the figure is more than 46.7 µg/mL; as for `COc1ccc(C(=O)Cn2cnc3ccccc3c2=O)cc1`, 31 µg/mL (≈ 105 µM).

As for `O=C(O)CCn1c(O)c(C=C2N=c3ccccc3=N2)sc1=S`, the solubility (kinetic) was more than 50 µg/mL. Compound `Cc1ccsc1CN1CC(=O)N(c2c(C)cccc2C)C1=S` had a solubility (kinetic) of 12.2 µg/mL (≈ 36.9 µM). As for `CCc1c(C(=O)Nc2cc(C(=O)OC)ccc2C)csc1C`, the figure is 1 µg/mL (≈ 3.15 µM); as for `COC(=O)Nc1ccc2c(c1)Nc1ccccc1CC2`, 0.5 µg/mL (≈ 1.86 µM); as for `CN(C)S(=O)(=O)c1ccc(C(=O)Nc2ccc3nc(N4CCOCC4)sc3c2)cc1`, 4.1 µg/mL (≈ 9.18 µM). For `O=P(Nc1ccccc1)(Oc1ccccc1)Oc1ccccc1`, the kinetic solubility is less than 0.7 µg/mL. As for `CC(=O)c1sc(=S)n(Cc2ccccc2)c1C`, the figure is 38 µg/mL (≈ 144 µM); as for `Cc1cc(N2CCCC2)nc2ccccc12`, 31.6 µg/mL (≈ 149 µM); as for `N#Cc1ccsc1NC(=O)CCN1C(=O)C2CCCCC2C1=O` (stereo not drawn), more than 49.7 µg/mL.

Compound `c1ccc(P(c2ccccc2)c2ccccn2)cc1` returned a solubility (kinetic) of 10 µg/mL (≈ 38 µM). `CN1CCN(C(=O)c2ccc(C(F)(F)F)cc2)CC1.Cl` came in with a solubility (kinetic) of more than 46.3 µg/mL.

On to `CCOc1ccccc1NC(=O)Nc1ccsc1C(=O)OC`, for which the solubility (kinetic) was found to be 7.9 µg/mL (≈ 24.7 µM).

`CCN(C(=O)c1ccco1)c1nc(-c2ccc(OC)cc2)cs1` displayed a kinetic solubility of less than 0.4 µg/mL.

`CN(C)c1ccc(C(O)Cc2nc3ccccc3n2C)cc1` (stereo not drawn) had a kinetic solubility of 12.1 µg/mL (≈ 41 µM). As for `Cc1ccc(NC(=O)CNC(=O)c2ccco2)cc1Cl`, the figure is 7 µg/mL (≈ 23.9 µM); as for `COCC(C)NC(=S)N1CCN(c2ccccc2Cl)CC1` (stereo not drawn), 48.5 µg/mL (≈ 148 µM); as for `CC(C)NC(=O)N(Cc1ccc(Cl)cc1)Cc1cccs1`, 37 µg/mL (≈ 115 µM).

`CN(C(=S)Nc1ccc(Oc2ccccc2)cc1)c1ccc(O)cc1` returned a kinetic solubility of more than 52.6 µg/mL. As for `COc1ccccc1CC(=O)N(Cc1ccccc1)c1cccc(C)c1`, the figure is 8.9 µg/mL (≈ 25.8 µM); as for `Cc1cccc(NC(=O)COC(=O)c2cc(C)n(C3CC3)c2C)c1`, 9.7 µg/mL (≈ 29.7 µM). As for `COC(=O)c1ccc(NC(=S)NC2CC2)cc1`, the figure is more than 37.5 µg/mL; as for `O=C(NCCc1ccc(Cl)cc1)c1ccc2c(c1)OCO2`, 1.2 µg/mL (≈ 3.95 µM). As for `Cc1cc(O)c(CN(C)C)c2c1C(=O)/C(=C/c1ccco1)O2`, the figure is more than 44.9 µg/mL; as for `O=C(CSc1ncccn1)NC1CCCc2ccccc21` (stereo not drawn), 42.5 µg/mL (≈ 142 µM). For the compound `CSc1nc(N)cc(=O)[nH]1`, the solubility (kinetic) is more than 23.6 µg/mL.

`CSc1ccc(Cl)c(C(=O)Nc2ccc(Cl)cn2)c1` came in with a kinetic solubility of 0.5 µg/mL (≈ 1.6 µM). As for `Cc1ccc(OCCCn2c(=O)oc3ccccc32)cc1`, the figure is 2 µg/mL (≈ 7.06 µM); as for `CN(CC(=O)Nc1cccc(Cl)c1)C1=NS(=O)(=O)c2ccccc21`, 3.7 µg/mL (≈ 10.2 µM). As for `Cc1cccc(OCCCN2CCOCC2)c1`, the figure is 28 µg/mL (≈ 119 µM); as for `Cc1cc(Br)c(NC(=O)COC(=O)CC2CC3CCC2C3)c(Br)c1` (stereo not drawn), 7.7 µg/mL (≈ 16.8 µM).

In the case of `COc1ccc(NC(=O)NC(C)c2ccccc2)cc1` (stereo not drawn), the kinetic solubility was determined as 15.5 µg/mL (≈ 57.3 µM). As for `O=C(CCCl)N1CCCC2(CCCCC2)C1`, the figure is 30.1 µg/mL (≈ 123 µM); as for `CCOC(=O)n1c(=O)n(Cc2ccc(OC)cc2)c2ccccc21`, 29.5 µg/mL (≈ 90.4 µM); as for `Cc1ccc(CC(C(=O)O)C(C)C(=O)Nc2ccc(F)cc2)cc1` (stereo not drawn), more than 49.4 µg/mL. `O=C(Nc1ccccc1N1CCCC1)c1ccc([N+](=O)[O-])o1` returned a kinetic solubility of 44.9 µg/mL (≈ 149 µM). As for `O=[N+]([O-])c1ccccc1S(=O)(=O)c1ccccc1`, the figure is more than 39.5 µg/mL. As for `COCCCNC(=O)C(CC(N)=O)NC(=O)OCc1ccccc1` (stereo not drawn), the figure is more than 50.6 µg/mL; as for `COC(=O)CCC(=O)Nc1cc(Cl)cc(Cl)c1`, 32.3 µg/mL (≈ 117 µM); as for `O=C(CNC(=O)c1ccc(Br)cc1)c1ccccc1`, 1.3 µg/mL (≈ 4.09 µM). As for `Cc1cccc(OCC(=O)OCC(=O)Nc2sccc2C(N)=O)c1`, the figure is 44.2 µg/mL (≈ 127 µM).

In turn, `COc1ccc(NC(=O)COC(=O)C2CCC2)cc1Cl` displayed a solubility (kinetic) of 42.8 µg/mL (≈ 144 µM).
